According to US12012637B2 (University of South Florida, priority 2017, dated 2024):

What was measured:
[1] = test system: LIN28B; assay: Dual immunofluorescence staining of LIN28B and GLUT1 in IH sections from propranolol-treated patients; assay type: in vivo, human
Protocol: Paraffin embedded infantile hemangioma and placenta sections (10 μm) were immunostained with primary antibodies against LIN28B 40 ug/ml (Abcam Cat #ab71415, RRID:AB_2135050) and GLUT1 3.4 ug/ml (Abcam Cat #ab40084, RRID:AB_2190927) overnight at 4° C. Sections were washed 3 times in PBS and incubated with 4 ug/ml secondary antibody Alexa Fluor 488 (Life Technologies Cat #a21202, RRID:AB_141607) for GLUT1 and alexa fluor cy3 (Life Technologies Cat #a10520, RRID:AB_2534029) for LIN28B for 30 minutes at room temperature. The sections were then washed with PBS and mounted with ProLong Diamond Antifade Mountant with DAPI, (Invitogen). Confocal images were obtained using an Olympus FV 1200 instrument. Immunofluorescence intensities were measured using ImageJ software as described^33. Fluorescence intensities were normalized to background intensities of secondary antibody only controls.

[2] = test system: LIN28B; assay: Immunoblot of LIN28B in propranolol-treated iPSCs; assay type: cell-based, human; conditions: 50 μM, 72 h, vs vehicle control
Protocol: (§1) Briefly, freshly dissected IH tissues were digested in 0.2% collagenase A (Roche Diagnostics, Indianapolis, IN). […] HemSCs were maintained in EBM-2 SingleQuot media Supplemented with 20% FBS.
Immunoblot analyses were performed as previously described^34 using 24 ng/ml antibodies against GAPDH (Cell Signaling Technology Cat #2118L RRID:AB_561053), […] antibodies against LIN28B (Abcam Cat #ab71415 RRID:AB_2135050) followed by IRDye 680 donkey anti-rabbit IGG secondary antibodies (0.2 μg/ml, LI-COR, 926-68073 RRID: AB_10954442). Immunoblots were imaged using the Odyssey Infrared Imaging System (LI-COR) and quantified using Image Studio software (LI-COR).

[3] = test system: iPSCs; assay: qRT-PCR analysis of miRNAs and genes in propranolol-treated iPSCs; assay type: cell-based, human; conditions: 50 μM
[4] = test system: iPSCs; assay: mRNA sequencing (RNAseq) and gene set enrichment analysis of propranolol-treated iPSCs; assay type: cell-based, human; conditions: 50 μM
Protocol: as §1
The cDNA library preparation was completed by second strand synthesis using SuperScript III, alkaline RNA hydrolysis, and PCR amplification for 10 cycles. mRNA libraries were prepared by utilizing the Illumina TruSeq Stranded mRNA LT protocol using 500 ng total RNA and NEB's Protoscript II reverse transcriptase for the first-strand cDNA synthesis according to the manufacturer's protocol. Individual RNAseq libraries were quality controlled on an Agilent TapeStation with a High Sensitivity D1000 ScreenTape. […] The libraries were sequenced on an Illumina NextSeq 500 sequencer 75-bp paired-end in mid-output mode in the Genomics Core Facility of The Rockefeller University.
The miRNA read annotation for sRNAseq experiments was performed as previously described^36, 37 using an slightly updated, manually curated miRNA reference based on previous work 38. […] The RNAseq data was aligned to the Human Genome Build 38 using the STAR aligner^40 (version 2.0.4j) allowing for two mismatches.
All data were tested for normality.

[5] = test system: iPSCs; assay: WST1 proliferation assay; assay type: cell-based, human; conditions: 50 μM, 72 hours
Protocol: iPSCs were grown in 6 well plates and split 1:10 at 3-day intervals. […] WST1 proliferation assays were performed as previously described^29.

[6] = test system: iPSCs; assay: Bright field morphology of propranolol-treated iPSCs; assay type: cell-based, human; conditions: 50 μM, 72 h, compared to control
[7] = test system: mir-498(46); conditions: previous work (ref. 7); cited from earlier work
[8] = test system: hemangioma stem cells; conditions: cited from earlier work
[9] = test system: iPSCs; assay: sRNAseq analysis of miRNA cistrons in propranolol-treated iPSCs
[10] = iPSCs, 50 μM, 72 h, vs vehicle control

SMILES: CC(C)NCC(O)COc1cccc2ccccc12 (centres unmarked) [Propranolol]
- LIN28B and GLUT1 immunostaining ([1]; propranolol-treated proliferative IH compared to untreated proliferative IH): markedly decreased
- LIN28B to GLUT1 immunofluorescence signal intensity, increase in proliferative IH compared to propranolol treated IH ([1]; untreated proliferative IH vs propranolol treated IH samples): ~2 fold
- decrease in LIN28B protein levels [2]: 2.3 fold
- SERPINE1 increased expression (qRT-PCR) ([3]; 72 h): 8.4 fold
- TWIST1 increased expression (qRT-PCR) ([3]; 72 h): 5 fold
- LIN28B mRNA levels ([3]; 72 h, data not shown): no significant differences
- increase in let-7a expression (qRT-PCR) ([3]; 72 hr): > 1. 65 fold
- miR-515-5p expression (qRT-PCR) ([3]; 72 hr): significant reduction
- miR-517a expression (qRT-PCR) ([3]; 72 hr): significant reduction
- miR-518C expression (qRT-PCR) ([3]; 72 hr): significant reduction
- miR-519d expression (qRT-PCR) ([3]; 72 hr): significant reduction
- SERPINE1 increase (RNAseq) ([4]; 72 h): 12 fold
- TWIST1 increase (RNAseq) ([4]; 72 h): 2.9 fold
- gene set analysis: TGF-β signaling pathway ([4]; 72 h, FDR 0.06): upregulation
- gene set analysis: adipogenesis pathway ([4]; 72 h, FDR 0.09): upregulation
- gene set analysis: E2F targets ([4]; 72 h, FDR<0.25): downregulation
- gene set analysis: G2M checkpoint ([4]; 72 h, FDR<0.25): downregulation
- gene set analysis: mitotic spindle pathway ([4]; 72 h, FDR<0.25): downregulation
- gene set enrichment: genes defining EMT ([4]; 72 h vs control, FDR 0.00046): enrichment
- decrease in cell proliferation [5]: 33%
- EMT associated morphological changes [6]: more elongated cellular shape
- levels of mir-498(46) in propranolol-treated IH tumors vs proliferative IH [7]: significantly lower levels
- adipogenesis in hemangioma stem cells [8]: induce adipogenesis
- downregulation of mir-498(46) [9, 10]: 1.6 fold
- increase in expression of cistron mir-98(13) [9, 10]: 3.2 fold
- Normalized frequency, cistron mir-10a(1) ([9]; propranolol-treated iPSCs): 0.0168%
- Normalized frequency, cistron mir-10b(1) ([9]; propranolol-treated iPSCs): 0.0176%
- Normalized frequency, cistron mir-21(1) ([9]; propranolol-treated iPSCs): 10.5844%
- Normalized frequency, cistron mir-33b(1) ([9]; propranolol-treated iPSCs): 0.002%
- Normalized frequency, cistron mir-98(13) ([9]; propranolol-treated iPSCs): 0.2313%
- Normalized frequency, cistron mir-188(8) ([9]; propranolol-treated iPSCs): 0.1459%
- Normalized frequency, cistron mir-488(1) ([9]; propranolol-treated iPSCs): 0.0022%
- Normalized frequency, cistron mir-498(46) ([9]; propranolol-treated iPSCs): 0.4075%
- Normalized frequency, cistron mir-1226(1) ([9]; propranolol-treated iPSCs): 0%
- Normalized frequency, cistron mir-3155(1) ([9]; propranolol-treated iPSCs): 0.0014%
